Source: patent US20150086618A1, “PHOSPHOLIPID MICELLAR AND LIPOSOMAL COMPOSITIONS AND USES THEREOF” (THE BOARD OF TRUSTEES OF THE UNIVERSITY OF ILLINOIS, priority 2008, published 2015)
Where no end group is shown, it is not given here.

Assays:
NF-κB = experiment: NF-κB-driven luciferase reporter assay in bone marrow-derived macrophages (BMDM) with LPS; assay type: cell-based, mice; conditions: 24 h
Text: Bone marrow-derived macrophages (BMDM) from a primary macrophage cell line, extracted from mice transfected with a nuclear factor-kappa B (NF-κB)-driven luciferase reporter plasmid, were used in these experiments. In this cell line, the expression of NF-κB (a proinflammatory mediator) induces the expression of a luciferase gene in a concentration-dependent manner. Therefore, the expression level of NF-κB in BMDM can be quantified indirectly by the magnitude of luminescence produced [relative luminescence units (RLU)] via a luciferase assay. BMDM were subjected to treatment with either saline, saline+LPS, SSM, SSM+LPS, GLP, GLP+LPS, GLP-SSM (GM), GM+LPS, VIP, VIP+LPS, VIP-SSM (VM), and VM+LPS. The resulting inflammatory responses induced by the different agents was then quantified via a luciferase assay to determine the expression level of NF-κB.
Test reagents for use in the experiments were prepared using the following protocols as set out in detail below. SSM stock solution (1.56 mM): Weigh approximately 2.2 mg of DSPE-PEG2000 into a round bottom flask (RBF). Add the required volume of saline (˜0.5 ml) to achieve a concentration of 1.56 mM. Vortex the mixture for 2 minutes at maximum speed. Flush the solution with argon and equilibrate in the dark at 25° C. for at least 1 hour. […] Dissolve in the required volume of saline (˜30 μl) to form stock solution (173.3 μM). Test samples and controls were prepared as set out in Table 2, and samples and control were incubated at 25° C. for 2 h in the dark. VIP stock solution (176.67 μM≡587.57 μg/ml): Weigh approximately 12 μg of VIP peptide. Saline (˜20 μl) was added to form the stock solution (176.67 μM). LPS stock solution (LPS is weighed from lyophilized powder and dissolved in PBS; each well contains 1 μg/ml).
Preparation of cells for test: Extracted bone marrow cells were grown for 7 days in liquid culture medium (LCM) containing full medium. Old medium was removed and fresh medium (10-20 ml) was added. Cells were dislodged by scraping using a cell scraper, and the cells were counted. The concentration of cells was adjusted with medium to the test concentration of 10^5 cells/ml. Cells (10^5) (˜1 ml) were plated into each well of a 12-well plate. This procedure was repeated until 16 wells were plated with cells. Cells were incubated for 24 h at 37° C., 5% CO2. This allowed cells to adhere to the culture plate. After 24 h, medium was removed and replaced with serum-starved medium (with 2% FBS, phenol red containing DMEM and Pen/Strep (P/S)). Cells were incubated at 37° C., 5% CO2.
Determination of NF-κB expression level: Before addition of sample/control, the media was removed from each well; washed with PBS and 0.5 ml of serum free media (DMEM with no phenol red, FCS or antibiotics) was added into each well. Cells were treated as set out in Table 3 below. Cells were then incubated for 24 h at 37° C. The culture media was collected from each well. Remaining cells were washed twice with PBS; 100 μl of cell lysis buffer (luciferase kit) was added; cells were dislodged with a cell scraper and collected in centrifuge tubes. All samples were stored at −80° C. if not used immediately. The expression level of NF-kappa B (relative luminescence units (RLU)) in the cell lysate from each well was measured using a luciferase assay (Cat#1500, Promega). The protein content of each sample was measured using a Bradford protein assay to normalize results from the luciferase assay. The results are set out in Table 3 below and in FIG. 2.

[1] = α-helicity of LP17 and control peptide in saline and SSM; assay type: physicochemical; conditions: peptide 20 μM, SSM 5 mM
Description: The α-helicity of LP17 (20 μM) in saline and in SSM (5 mM) was tested. A control peptide ([…] (SEQ ID NO:2)) was also tested in saline and in SSM at the same concentrations.

[2] = test system: TREM-1 promoter-driven luciferase gene; experiment: TREM1-luciferase reporter assay in RAW 264.7 macrophages stimulated with P. aeruginosa PA103; assay type: cell-based, mouse; conditions: RAW 264.7 cells pre-treated 18 hr, then PA103 24 hr; compared to saline-treated PA103-stimulated cells
Text: Murine macrophages (RAW 264.7 cells) were transfected with a pro-inflammatory mediator ‘triggering receptor expressed on myeloid cells’ (TREM-1) promoter-driven luciferase gene. TREM-1 is an immunoglobulin superfamily (IgSF) molecule that amplifies inflammation and is a crucial mediator of septic shock (Bouchon et al., Nature 410: 1103-1107, 2001). The macrophages were pre-treated for 18 hr with the following treatments: (i) saline, (ii) SSM, (iii) sub-micellar concentration of lipid (lipid), (iv) GLP-SSM (GM), or (v) VIP-SSM (VM), in the presence or absence of Exendin(9-39) or (VIP(6-28). To allow for the presence of excess antagonist to compete with its respective peptide agonist for receptor binding, the concentration of each receptor antagonist used (10 μM) was 10 times greater than its peptide agonist (1 μM). Inflammation of cells was induced by the addition of the Gram-negative bacteria Pseudomonas aeruginosa (P. aeruginosa strain PA103) for an additional 24 hr, and luciferase activities were measured (see FIG. 1).
The preparation of samples was carried out as follows: The SSM stock solution (1.59 mM) was prepared by weighing approximately 2.23 mg of DSPE-PEG2000 into a round bottom flask (RBF). Saline (˜0.5 ml) was added to achieve a concentration of 1.59 mM. […]
TREM1 expression levels were determined as set out below. […]

vasoactive intestinal peptide (HSDAVFTDNYTRLRKQMAVKKYLNSILN; ends and bridges not checked; UniProt P01282 125-152, looked up) [VIP, peptide hormone containing 28 amino acid residues, free peptide in saline]
Relative Luminescence Units (RLU) Normalized to Protein Concentration, Ave. (NF-κB; + LPS (1 μg/ml)): 311.39 RLU | Relative Luminescence Units (RLU) Normalized to Protein Concentration, Trial 1 (NF-κB; + LPS (1 μg/ml)): 329.26 RLU | Relative Luminescence Units (RLU) Normalized to Protein Concentration, Trial 2 (NF-κB; + LPS (1 μg/ml)): 342.42 RLU | Relative Luminescence Units (RLU) Normalized to Protein Concentration, Trial 3 (NF-κB; + LPS (1 μg/ml)): 306.81 RLU | Relative Luminescence Units (RLU) Normalized to Protein Concentration, Trial 4 (NF-κB; + LPS (1 μg/ml)): 267.10 RLU | Relative Luminescence Units (RLU) Normalized to Protein Concentration, Ave. (NF-κB; control without LPS): 73.70 RLU | Relative Luminescence Units (RLU) Normalized to Protein Concentration, Trial 1 (NF-κB; control without LPS): 57.78 RLU | Relative Luminescence Units (RLU) Normalized to Protein Concentration, Trial 2 (NF-κB; control without LPS): 90.09 RLU | Relative Luminescence Units (RLU) Normalized to Protein Concentration, Trial 3 (NF-κB; control without LPS): 60.50 RLU | Relative Luminescence Units (RLU) Normalized to Protein Concentration, Trial 4 (NF-κB; control without LPS): 86.45 RLU

TDSRCVIGLYHPPLQVY (SEQ ID NO:2) (listed as Mus musculus) [control peptide, control peptide for LP17]
percent α-helicity in SSM compared to saline [1]: No significant difference

Exendin (9-39)
luciferase activity (expression level of TREM 1) [2]: absence of anti-inflammatory effect

VIP(6-28): VIP receptor antagonist (FTDNYTRLRKQMAVKKYLNSILN; ends and bridges not checked; UniProt P01282 130-152, looked up, fragment)
luciferase activity (expression level of TREM 1) [2]: absence of anti-inflammatory effect
